# Measured values taken from patent US20260061191A1, “Using Alternating Electric Fields to Increase Cell Membrane Permeability” (The Board of Trustees of the Leland Stanford Junior …, priority 2018, published 2026).
# How the values were obtained:
# [1] = test system: U87-MG cells on PCS-201 fibroblasts co-culture; experiment: 5-ALA uptake (PpIX fluorescence), U87-MG GBM on PCS-201 fibroblast co-cultures; type: cell-based, human
# U87-MG cells [2] = experiment: 5-ALA uptake (PpIX fluorescence), single U87-MG culture; type: cell-based, human
# Description: Experiments were performed to determine the effects of TTFields on uptake of 5-ALA (as measured by PpIX accumulation and its resultant fluorescence) in glioblastoma cells. Because it is difficult to distinguish the margin between tumor and normal cells using the present 5-ALA bioassay, the measurement of PpIX fluorescence was used to address this issue. Investigations were run to determine whether permeation of 5-ALA through the cellular membrane and into the glioblastoma cells could be increased with TTFields exposure. U87-MG cells were exposed or unexposed to TTFields, each for durations of 6-24 h.
# All monovariant statistical comparisons between no TTFields vs. TTFields samples done by Student's t-test for n=3 experiments per time point.
# [3] = test system: MDA-MB-435 human melanoma cell line cells; experiment: Permeability of cell membranes to 7-AAD, flow cytometry; type: cell-based
# Description: After this 15 minute period, alternating electric field application was terminated and the cells were incubated at room temperature for an additional 15 minutes.
# After this 24 hour period, the alternating electric fields were turned off for 15 minutes, after which the 7-AAD was added. After waiting an additional 15 minutes, the percentage of cells with increased accumulation of the fluorescent 7-AAD was determined using flow cytometry.
# U87-MG cells [4] = experiment: Timing of permeability to 7-AAD after alternating electric field, flow cytometry; type: cell-based, human; conditions: 300 kHz, 1.62 V/cm RMS, 24 hours; sample incubated with 7-AAD while subjected to the field (added 15 minutes prior to cessation)
# Description: FIG. 7D depicts the results of an experiment to test how quickly the permeability drops back down after cessation of the alternating electric fields. More specifically, 7-Aminoactinomycin D (7-AAD) is a fluorescent chemical compound with a strong affinity for DNA. […] 7-AAD was introduced into samples at five different times: 15 minutes prior to the cessation of the alternating electric field; immediately after cessation of the alternating electric field […]. In each case, the cells were incubated with 7-AAD for 30 minutes after introduction of the 7-AAD, followed by flow cytometry analysis of the percentage of cells with increased accumulation of the fluorescent 7-AAD for each of the different timings.
# GBM39/Luc cells = experiment: Drug sensitivity / synergy with TTFields; type: cell-based, human
# GBM39 cells = experiment: Drug sensitivity with TTFields; type: cell-based, human; conditions: TTFields for 3 days vs control without TTFields
# U87-MG/GFP-Luc cells = experiment: Drug sensitivity / synergy with TTFields; type: cell-based, human
# glioblastoma patients = experiment: Survival of glioblastoma patients treated with TTFields plus temozolomide; type: in vivo, human; conditions: TTFields plus temozolomide vs temozolomide alone, re-analysis of Ram et al.
# Text: The treatment of glioblastoma (GBM) using alternating electric fields is a novel, validated therapy that has become an additional modality (after surgery chemoradiation and chemotherapy) for anti-cancer treatments. Intermediate frequency alternating electric fields (100-500 kHz) have been studied in detail. […] In the context of treating tumors, alternating electric fields at these frequencies are often referred to as “tumor treating fields” or “TTFields.”
# Recurrence of GBM is inevitable and the median time to first recurrence despite standard therapy is approximately 7 months. […] TTFields compliance (≥75% vs. <75%) was an independent predictor of overall survival in the retrospective analysis of the full EF-14 trial dataset and the duration of use of TTFields was also found to affect overall survival. […] Namely, a correlation between the length of TTFields exposure and the duration of its effect on cell membrane permeability after cessation of TTFields was observed. At lengths of TTFields exposure of 0.5-3 h, the duration in BLI augmentation (compared to no TTFields conditions) lasted about 5 min. However, at TTFields exposures of 12-25 h, this difference in BLI between TTFields and no TTFields conditions lasted for more than 20 min.
# human glioblastoma cells = experiment: Growth inhibition by TTFields in conjunction with Withaferin A; type: cell-based; conditions: TTFields treatment in conjunction with Withaferin A
# Text: In this figure, 5-ALA=5-aminolevulinic acid; Ethidium D=ethidium bromide; and FITC=fluorescein isothiocyanate.
# U87-MG/eGFP-fLuc cells [5] = experiment: Annexin-V-APC binding (early apoptosis), fluorescence microscopy; type: cell-based, human; conditions: 21 μM, TTFields-unexposed samples
# Description: To test if the imposition of TTFields affects cell membrane properties, and thus membrane permeability, the effect of TTFields on the behavior of fluorescently tagged reagents that bind to the cellular membrane was determined. Initially, the impact of TTFields on the binding of Annexin-V-APC to the membrane of U87-MG/eGFP-fLuc cells was measured. Annexin-V-APC binding is a signature of early apoptosis which is characterized by ruffling of the membrane.
# [6] = test system: human glioblastoma cells that have been modified to express luciferase
# Description: U87-MG/eGFP-fLuc cells were seeded on Thermanox glass coverslips, allowed to settle and grow, and then subjected to either TTFields or no TTFields.
# Bioluminescence imaging: For all bioluminescence work, we used genetically-modified GBM2, GBM39 and U87-MG whereby the glioblastoma cells were transfected with lentiviral vectors that expressed either firefly luciferase (fLuc for GBM39) or a fusion protein of GFP and firefly luciferase (GFP/fLuc for GBM2 and eGFP-fLuc for U87-MG) or a Renilla luciferase-Red Fluorescence protein fusion (RLuc-RL8 for KR158B).
# MES-SA cells = experiment: Intracellular accumulation of doxorubicin under 150 kHz alternating electric field; conditions: 1.62 V/cm RMS, 24 hours, 10 μM doxorubicin for the last hour
# Description: In this experiment, MES-SA cells were treated with an alternating electric field at 150 kHz with a field strength of 1.62 V/cm RMS for 24 hours. After the first 23 hours, doxorubicin at a concentration of 10 μM was added and incubated for one hour during which time the alternating electric fields was continued (to complete the 24 hour period). The intracellular accumulation of doxorubicin was then measured.
# [7] = test system: MDA-MB-435 cells, wild type; experiment: Intracellular accumulation of doxorubicin under alternating electric field; conditions: 150 kHz, 1.62 V/cm, 23 hours, then 10 μM doxorubicin for one hour with field; vs no field
# Description: (§1) In this experiment, both wild type and doxorubicin resistant variants of MDA-MB-435 cells were treated with an alternating electric field at 150 kHz with a field strength of 1.62 V/cm for 23 hours. After this 23 hour period, doxorubicin at a concentration of 10 μM was added and incubated for one hour, during which time the alternating electric fields was continued. The intracellular accumulation of doxorubicin was then measured.
# [8] = test system: MDA-MB-435 cells, doxorubicin resistant; experiment: as above; conditions: 150 kHz, 1.62 V/cm, 23 hours, then 10 μM doxorubicin for one hour with field; vs no field
# Description: as §1
# MDA-MB-235 cells = experiment: Drug sensitivity / synergy with TTFields; type: cell-based
# U87-MG/eGFP-fLuc cells [9] = experiment: Ethidium D uptake under TTFields; type: cell-based, human; conditions: 200 kHz TTFields vs no TTFields, p<0.0001
# Text: Ethidium D permeates through both the plasma membrane and the nuclear membrane and intercalates into genomic DNA.
# [10] = molecular target: T1, purified firefly luciferase (Photinus pyralis, UniProt P08659); experiment: Activity of purified firefly luciferase exposed to TTFields; type: biochemical; conditions: 200 kHz TTFields, 60 minutes after initiation of TTFields
# T1 construct: purchased Sigma Aldrich Inc (St. Louis, MO) SRE0045-2MG
# T1 sequence (P08659 whole entry): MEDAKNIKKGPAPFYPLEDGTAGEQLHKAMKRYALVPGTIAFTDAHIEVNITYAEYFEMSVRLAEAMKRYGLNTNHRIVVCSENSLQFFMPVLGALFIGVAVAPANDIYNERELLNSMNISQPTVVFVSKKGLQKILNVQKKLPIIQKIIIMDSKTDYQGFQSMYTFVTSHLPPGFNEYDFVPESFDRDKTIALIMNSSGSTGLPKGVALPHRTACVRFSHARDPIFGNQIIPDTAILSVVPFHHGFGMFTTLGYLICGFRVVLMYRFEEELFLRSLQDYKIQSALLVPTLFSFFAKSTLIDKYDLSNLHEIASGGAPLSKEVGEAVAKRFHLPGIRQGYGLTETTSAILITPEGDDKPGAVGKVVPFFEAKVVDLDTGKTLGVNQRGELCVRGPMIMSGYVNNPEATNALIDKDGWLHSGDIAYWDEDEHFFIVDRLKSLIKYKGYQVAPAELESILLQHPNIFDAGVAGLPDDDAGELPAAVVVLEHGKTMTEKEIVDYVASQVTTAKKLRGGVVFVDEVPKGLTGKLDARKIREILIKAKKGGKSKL
# [11] = TTFields for 3 days vs control without TTFields
compound,measurement,setting,value
"NCC(=O)CCC(=O)O [5-ALA, 5-aminolevulinic acid]",5-ALA uptake in the GBM cells compared to the fibroblast cells (ratio of PpIX fluorescence intensity),"[1]; TTFields exposure (by 24 h, p=0.043) vs no TTFields",significantly increased
same,rate of PpIX fluorescence intensity increase,"[1]; TTFields-exposed vs unexposed co-cultures, 2, 6 and 24 h, p<0.001",significantly augmented
same,uptake of 5-ALA (PpIX fluorescence),"U87-MG cells [2]; 6 h of TTFields exposure vs no TTFields, p=0.047",significantly increased uptake
same,uptake of 5-ALA (PpIX fluorescence),"U87-MG cells [2]; 24 h of TTFields exposure vs no TTFields, p=0.011",increase was maintained
"Cc1c2oc3c(C)c(N)cc(C(=O)N[C@@H]4C(=O)N[C@H](C(C)C)C(=O)N5CCC[C@H]5C(=O)N(C)CC(=O)N(C)[C@@H](C(C)C)C(=O)O[C@@H]4C)c3nc-2c(C(=O)N[C@@H]2C(=O)N[C@H](C(C)C)C(=O)N3CCC[C@H]3C(=O)N(C)CC(=O)N(C)[C@@H](C(C)C)C(=O)O[C@@H]2C)c(N)c1=O [7-AAD, 7-Aminoactinomycin D]",percentage of cells with increased accumulation of 7-AAD,"[3]; 150 kHz, 1.62 V/cm, 24 hours, 7-AAD added 15 minutes after fields were turned off",~20%
same,percentage of cells with increased accumulation of 7-AAD,"[3]; 150 kHz, 1.62 V/cm, 24 hours, 7-AAD added for the last 15 minutes of the field",~66%
same,percentage of cells with increased accumulation of 7-AAD,"[3]; control, same conditions, alternating electric fields not applied",less than 5%
same,percentage of cells with increased accumulation of 7-AAD,U87-MG cells [4],significant increase in accumulation
CCc1c2c(nc3ccc(OC(=O)N4CCC(N5CCCCC5)CC4)cc13)-c1cc3c(c(=O)n1C2)COC(=O)[C@]3(O)CC [Irinotecan],synergy of the combination with TTFields,GBM39/Luc cells,synergy was found
same,sensitivity of cells to various concentrations of drug,GBM39/Luc cells; [11],improves the sensitivity
O=NN(CCCl)C(=O)NC1CCCCC1 [Lomustine],sensitivity of cells to various concentrations of drug,GBM39 cells,improves the sensitivity
same,sensitivity of cells to various concentrations of drug,U87-MG/GFP-Luc cells; [11],improves the sensitivity
same,sensitivity of cells to various concentrations of drug,pcGBM2/GFP-Luc cells; [11],improves the sensitivity
Cn1nnc2c(C(N)=O)ncn2c1=O [Temozolomide],percent increase in overall survival,glioblastoma patients; after 1 year of TTFields exposure,32%
same,percent increase in overall survival,glioblastoma patients; after 5 years of TTFields exposure,551%
CC1=C(CO)C(=O)O[C@@H]([C@@H](C)[C@H]2CC[C@H]3[C@@H]4C[C@H]5O[C@]56[C@@H](O)C=CC(=O)[C@]6(C)[C@H]4CC[C@]23C)C1 [Withaferin A],synergy of the combination with TTFields,GBM39/Luc cells,synergy was found
same,growth of human glioblastoma cells,human glioblastoma cells,synergistically inhibited the growth
same,Annexin-V-APC binding (positive control for apoptosis),U87-MG/eGFP-fLuc cells [5],could be visualized
same,synergy of the combination with TTFields,U87-MG/GFP-Luc cells,synergy was found
same,synergy of the combination with TTFields,pcGBM2/GFP-Luc cells,synergy was found
Oc1ccc(Cc2nc3c(Cc4ccccc4)nc(-c4ccc(O)cc4)cn3c2O)cc1 [coelenterazine],permeation of the substrates through the plasma membrane (greater bioluminescence),[6],increased permeation
COc1cccc2c1C(=O)c1c(O)c3c(c(O)c1C2=O)C[C@@](O)(C(=O)CO)C[C@@H]3O[C@H]1C[C@H](N)[C@H](O)[C@H](C)O1 [doxorubicin],increase of intracellular accumulation of doxorubicin,MES-SA cells,more than 2 X
same,intracellular accumulation of doxorubicin,[7],increased
same,intracellular accumulation of doxorubicin,[8],increased
same,synergy of the combination with TTFields,MDA-MB-235 cells,Evidence of synergy
same,sensitivity of cells to various concentrations of drug,MDA-MB-235 cells; [11],improves the sensitivity
"CC[n+]1c(-c2ccccc2)c2cc(N)ccc2c2ccc(N)cc21 [ethidium D, ethidium bromide]",ethidium D uptake,U87-MG/eGFP-fLuc cells [9],significantly increased
firefly luciferase: purified firefly luciferase (SRE0045-2MG) purchased from Sigma Aldrich,loss in enzymatic activity,[10],> 1000 fold
